Data set [1] deals with human ureteral smooth muscle. The data set is described as follows: Relaxant effect of diazepam on EFS-induced contraction of human ureteral muscle rings (Example 3). In kind it is cell-based. How it is done:
(§1) Ureteral muscle rings obtained from women undergoing nephrectomy or ureteral muscle strips harvested from adult male Wistar rats (n=8 samples of each) were mounted in 5 mL organ baths containing Krebs-Henseleit solution. The organ baths were kept at 37±1° C. and continuously aerated with 95% O2-5% CO2. After 60 minutes of equilibration, smooth muscle samples were exposed to 80 or 30 mM KCl (human and rat, respectively) to assess their viability. After washout and 30 additional minutes of equilibration, electrical field stimulation (EFS) was started. […] Time-matched controls were obtained exposing tissues to a solution of drug vehicle without diazepam (DMSO in distilled water). At the end of the experiment, the maximal relaxant capacities of each tissue were determined by exposure to 10 μM forskolin.

Data set [2] has as its system rat ureteral smooth muscle. The data set is described as follows: Relaxant effect of diazepam on EFS-induced contraction of rat ureteral muscle strips (Example 3). The format is cell-based, Wistar rats. As for the experimental part:
as §1

With `CN1C(=O)CN=C(c2ccccc2)c2cc(Cl)ccc21` [diazepam, 7-chloro-1,3-dihydro-1-methyl-5-phenyl-2H-1,4-benzodiazepin-2-one], the Emax (usually the maximal effect, on the per cent scale that the assay sets) in data set [1] (Homo sapiens, read-out: maximal relaxant effect (Emax), of the basal response to EFS) stood at 98.4 ± 0.2%; in data set [2] (read-out: maximal relaxant effect (Emax), of the basal response to EFS), 67.4 ± 5%. In addition, the IC50 in data set [1] (Homo sapiens, read-out: pIC50 for inhibition of EFS-induced contraction (converted)) was 4.47 µM; in data set [2] (read-out: pIC50 for inhibition of EFS-induced contraction (converted)), 1.12 µM. The “restoration of baseline EFS-induced contractility after washout” value in data set [1] (human ureter, following total inhibition of tissue contraction by diazepam) was “restored after 3 washouts”.

The record behind these values is patent US8946209B2, “Compositions and methods for treating and preventing urolithiasis and conditions associated therewith” (OptMed, Inc., priority 2009, dated 2015).
